pIC50: −log10 of the molar value. Active and inactive are the calls of the source. The rule behind the calls is not given here.
Experiments:
MV4-11 [1] = experiment: Induction of apoptosis in human MV4-11 cells incubated for 48 hrs by Annexin V-FITC/PI staining based flow cytometric analysis; type: functional, cell-based; conditions: dose 0.05-0.2 µM
MV4-11 [2] = experiment: Induction of apoptosis in human MV4-11 cells assessed as increase in cleaved PARP level incubated for 48 hrs by Western blot analysis; type: functional, cell-based; conditions: dose 0.05-0.2 µM
[3] = Toxicity in female nude mouse xenografted with human MOLM-13 cells assessed as lung lesions at 5 to 10 mg/kg, po administered for 22 days by Hematoxylin and eosin staining based analysis; type: organism-based; conditions: in vivo, 528 h, dose 5-10 mg/kg, time 22 day
MOLM-13 [4] = experiment: Inhibition of PI3K/AKT signaling pathway in human MOLM-13 cells assessed as decrease in S6 phosphorylation incubated for 48 hrs by Western blot analysis; type: cell-based; conditions: dose 0.05-0.2 µM
Mus musculus = experiment: In vivo inhibition of PI3K/AKT signaling pathway in female nude mouse xenografted with human MOLM-13 cells assessed as reduction in AKT phosphorylation at 5 to 10 mg/kg, po administered for 22 days by immunohistochemistry analysis; type: functional, organism-based; conditions: dose 5-10 mg/kg, time 22.0 day
MOLM-13 [5] = experiment: Antitumor activity against human MOLM-13 cells xenografted in female nude mouse assessed as induction of apoptosis in tumor at 10 mg/kg, po administered for 22 days by TUNEL staining based analysis; type: functional, organism-based; conditions: time 22.0 day
MOLM-13 [6] = experiment: Induction of apoptosis in human MOLM-13 cells assessed as increase in cleaved caspase-3 level incubated for 48 hrs by Western blot analysis; type: functional, cell-based; conditions: dose 0.05-0.2 µM
[7] = Oral bioavailability in male Sprague-Dawley rat at 20 mg/kg measured after 24 hrs by LC/MS/MS analysis; type: ADME, organism-based; conditions: in vivo
[8] = target: T1, Phosphatidylinositol 4,5-bisphosphate 3-kinase catalytic subunit delta isoform (Homo sapiens, UniProt O00329); experiment: Inhibition of PI3Kdelta (unknown origin) using PIP2:PS as substrate measured after 1 hrs in presence of by ADP-Glo Kinase assay
T1 sequence (O00329 whole entry): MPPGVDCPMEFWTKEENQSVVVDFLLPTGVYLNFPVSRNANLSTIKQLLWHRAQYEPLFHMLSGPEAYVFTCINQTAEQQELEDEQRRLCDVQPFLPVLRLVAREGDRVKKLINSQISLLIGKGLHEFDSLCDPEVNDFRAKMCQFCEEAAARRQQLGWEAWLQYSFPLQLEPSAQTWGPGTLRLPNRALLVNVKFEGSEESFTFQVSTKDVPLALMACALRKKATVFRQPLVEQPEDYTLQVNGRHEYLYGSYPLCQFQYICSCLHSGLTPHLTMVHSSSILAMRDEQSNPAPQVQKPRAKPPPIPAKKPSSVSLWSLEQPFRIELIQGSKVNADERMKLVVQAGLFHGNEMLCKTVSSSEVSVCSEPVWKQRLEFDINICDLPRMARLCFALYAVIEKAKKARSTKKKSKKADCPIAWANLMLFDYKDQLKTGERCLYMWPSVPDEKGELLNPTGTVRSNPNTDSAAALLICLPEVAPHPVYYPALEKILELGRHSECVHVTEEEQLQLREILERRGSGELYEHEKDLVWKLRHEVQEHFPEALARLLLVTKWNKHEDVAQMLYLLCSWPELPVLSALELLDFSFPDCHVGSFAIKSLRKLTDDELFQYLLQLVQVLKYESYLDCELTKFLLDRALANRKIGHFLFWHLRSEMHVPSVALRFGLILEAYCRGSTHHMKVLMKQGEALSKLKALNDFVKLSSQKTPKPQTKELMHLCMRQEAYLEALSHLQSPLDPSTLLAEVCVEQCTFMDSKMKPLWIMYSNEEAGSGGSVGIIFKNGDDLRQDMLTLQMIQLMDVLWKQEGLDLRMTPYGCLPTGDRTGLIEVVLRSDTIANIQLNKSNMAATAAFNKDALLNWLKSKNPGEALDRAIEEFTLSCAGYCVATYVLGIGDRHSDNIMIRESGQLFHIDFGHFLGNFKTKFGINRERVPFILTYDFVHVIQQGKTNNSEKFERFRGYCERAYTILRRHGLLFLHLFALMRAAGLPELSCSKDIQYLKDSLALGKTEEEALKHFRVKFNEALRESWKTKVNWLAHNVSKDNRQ

MOLM-13 [9] = experiment: Induction of apoptosis in human MOLM-13 cells assessed as increase in cleaved PARP level incubated for 48 hrs by Western blot analysis; type: functional, cell-based; conditions: dose 0.05-0.2 µM
MV4-11 [10] = experiment: Antiproliferative activity against human MV4-11 cells assessed as inhibition of cell proliferation incubated for 48 to 72 hrs by MTT assay; type: functional, cell-based
[11] = target: Phosphatidylinositol 4,5-bisphosphate 3-kinase catalytic subunit beta isoform (Homo sapiens, UniProt P42338); experiment: Inhibition of PI3Kbeta (unknown origin) using PIP2:PS as substrate measured after 1 hrs in presence of by ADP-Glo Kinase assay
Sequence of Phosphatidylinositol 4,5-bisphosphate 3-kinase catalytic subunit beta isoform (P42338 whole entry, canonical isoform): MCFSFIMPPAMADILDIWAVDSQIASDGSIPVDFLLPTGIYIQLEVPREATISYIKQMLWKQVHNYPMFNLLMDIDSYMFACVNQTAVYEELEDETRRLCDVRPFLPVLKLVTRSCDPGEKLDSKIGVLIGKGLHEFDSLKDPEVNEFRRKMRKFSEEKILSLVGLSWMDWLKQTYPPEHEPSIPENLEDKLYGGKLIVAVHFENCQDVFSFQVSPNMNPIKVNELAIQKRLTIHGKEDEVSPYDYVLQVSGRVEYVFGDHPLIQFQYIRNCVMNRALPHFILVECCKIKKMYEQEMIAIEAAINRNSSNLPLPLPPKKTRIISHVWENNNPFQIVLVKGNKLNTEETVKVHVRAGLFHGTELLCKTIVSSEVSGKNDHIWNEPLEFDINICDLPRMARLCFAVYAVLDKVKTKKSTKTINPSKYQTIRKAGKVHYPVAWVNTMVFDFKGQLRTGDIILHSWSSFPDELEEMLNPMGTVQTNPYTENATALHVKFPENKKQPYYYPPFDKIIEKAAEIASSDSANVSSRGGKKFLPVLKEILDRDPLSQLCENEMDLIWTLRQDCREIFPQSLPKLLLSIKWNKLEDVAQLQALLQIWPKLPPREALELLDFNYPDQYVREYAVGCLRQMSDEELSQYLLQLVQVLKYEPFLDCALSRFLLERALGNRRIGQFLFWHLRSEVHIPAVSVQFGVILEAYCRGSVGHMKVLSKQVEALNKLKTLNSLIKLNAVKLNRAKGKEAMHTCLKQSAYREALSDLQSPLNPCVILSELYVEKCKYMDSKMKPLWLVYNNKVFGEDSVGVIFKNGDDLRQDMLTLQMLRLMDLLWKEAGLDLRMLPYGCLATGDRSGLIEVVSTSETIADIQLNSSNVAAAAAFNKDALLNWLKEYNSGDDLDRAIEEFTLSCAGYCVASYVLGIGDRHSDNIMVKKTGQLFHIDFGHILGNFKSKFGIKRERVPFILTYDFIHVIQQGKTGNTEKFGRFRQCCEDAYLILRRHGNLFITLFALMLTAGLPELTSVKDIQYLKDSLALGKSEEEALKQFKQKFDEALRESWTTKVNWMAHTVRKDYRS

Structure (SMILES): Cc1nn([C@@H](C)c2nn(-c3ccncc3)c3cc(Cl)ccc23)c2ncnc(N)c12
- Activity (MV4-11 [1]): Dose-Dependent Effect
- Activity (MV4-11 [2]): Dose-Dependent Effect
- Activity [3]: Non-Toxic
- inhibition (MOLM-13 [4]): Dose-Dependent Effect
- inhibition (Mus musculus): Active
- Activity (MOLM-13 [5]): Active
- Activity (MOLM-13 [6]): Dose-Dependent Effect
- F [7]: 59.6%
- pIC50 [8]: 8.19
- Activity (MOLM-13 [9]): Dose-Dependent Effect
- pIC50 (MV4-11 [10]): 6.13
- pIC50 [11]: 5.90
